Source: patent US20080255192A1, “Methods and Compositions for Selectin Inhibition” (Wyeth, priority 2007, published 2008)

Molecular target: T1, P-selectin/PSGL-1 interaction (Homo sapiens, UniProt P16109)
T1 construct: comprised of the lectin and epidermal growth factor-like (EGF) domains expressed in CHO cells; made in house; host or cells: CHO cells (P-LE)
T1 sequence (P16109 42-198): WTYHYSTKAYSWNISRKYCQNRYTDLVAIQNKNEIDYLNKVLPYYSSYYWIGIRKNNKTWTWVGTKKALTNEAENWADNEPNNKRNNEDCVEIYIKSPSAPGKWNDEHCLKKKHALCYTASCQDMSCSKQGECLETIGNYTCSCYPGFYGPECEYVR
Test: Biacore P-Selectin/PSGL-1 Inhibition Assay (surface plasmon resonance)
Assay type: binding
Conditions: 250 uM test compound, 500 nM P.LE, immobilized PSGL-1 19ek, 10% DMSO, pH 7.4
Experimental: Surface plasmon resonance assays were performed on a Biacore 3000 instrument (Biacore Inc. Piscataway, N.J.) at 25° C. at a flow rate of 30 μL/minute and each assay consisted of a 60-second equilibration, a 60-μL sample injection (kinject), and a 300-second dissociation.
A purified, monomeric, truncated form of human PSGL-1, “19ek”, that contained all the necessary P-selectin binding determinants (see Goetz, et al., J. Cell Biol., 1997, 137: 509-519; and Sako, et al., Cell, 1995, 83: 323-331) was biotinylated via amine chemistry (Sulfo-NHS-LC-Biotin, Peirce) at a unique C-terminal lysine residue (see Somers, et al., Cell, 2000, 103: 467-479) and immobilized on a Biacore SA sensor chip (Biacore Inc.), using an HBS-EP buffer (Biacore Inc.), and the target 600-700 RU. The coated chip was re-equilibrated with an HBS-P buffer (Biacore Inc.) to which 1 mM CaCl2 and 1 mM MgCl2 (both from Fisher) were added to ensure sufficient calcium for the calcium-dependent interaction between the receptor and the ligand.
Test compounds were incubated for 1 hour in a 1.1× Biacore assay buffer. Each solution was centrifuged through a 0.2 µm filter, using a 96-well plate format (Millipore). Glycyrrhizin tri-sodium salt (TCI) was prepared as a positive control in parallel with the test compounds, in the same manner described above.
A soluble recombinant truncated form of human P-selectin, P-LE, comprised of the lectin and epidermal growth factor-like (EGF) domains expressed in CHO cells (see Somers, et al., Cell, 2000, 103: 467-479) was added to each filtered test compound solution. Final concentrations of reagents were 500 nM P.LE, 250 or 500 μM test compound (depending on structure) or 1 mM glycyrrhizin, 10% DMSO, and 1× Biacore buffer ([…], 150 mM NaCl, 1 mM CaCl2, and 1 mM MgCl2 (all reagents from Fisher)), with a pH of 7.4. Compounds active at 250 μM were titrated to further define activity. Test samples were supplied to the Biacore instrument in a 96-well plate.
The Biacore raw data file was exported as a text file to an Excel spreadsheet, where the buffer blanks bracketing the samples were averaged for each Biacore instrument flow cell (Fc), and subtracted from the averaged uninhibited P.LE samples and from all the other samples. The reference signal from Fcl (uncoated) was then subtracted from its corresponding active (coated) signal for each injection, a process known as double referencing (see Myszka, J. Mol. Recognit., 1999, 12(5): 279-284). The percent inhibition of binding was calculated by dividing the reference-subtracted inhibited signal by the reference-subtracted uninhibited signal, subtracting this value from 1, and multiplying the resulting value by 100. The replicate percent inhibition values were averaged and expressed as the mean ±standard deviation. The inter-experiment standard deviation of calculated percent inhibitions in the Biacore assay was ±5.

inhibition at 250 µM [%]	Compound
17	O=C(O)c1c(O)c(C2(c3ccccc3C(F)(F)F)CC2)nc2c(C(F)(F)F)cccc12 [Compound 63, 3-hydroxy-8-(trifluoromethyl)-2-(1-(2-(trifluoromethyl)phenyl)cyclopropyl)quinoline-4-carboxylic acid]
20	Cc1cc(C)c2nc(C3(c4ccccc4)CC3)c(O)c(C(=O)O)c2c1 [Compound 64, 3-hydroxy-6,8-dimethyl-2-(1-phenylcyclopropyl)quinoline-4-carboxylic acid]
31	CCc1cccc2c(C(=O)O)c(O)c(C3(c4ccc(F)cc4)CC3)nc12 [Compound 65, 8-ethyl-2-(1-(4-fluorophenyl)cyclopropyl)-3-hydroxyquinoline-4-carboxylic acid]
≤ 10	CCc1ccc2c(C(=O)O)c(O)c(C3(c4ccc(F)cc4)CC3)nc2c1 [Compound 66, 7-ethyl-2-(1-(4-fluorophenyl)cyclopropyl)-3-hydroxyquinoline-4-carboxylic acid]
≤ 10	O=C(O)c1c(O)c(C2(c3ccc(F)cc3)CC2)nc2ccc(Cl)cc12 [Compound 67, 6-chloro-2-(1-(4-fluorophenyl)cyclopropyl)-3-hydroxyquinoline-4-carboxylic acid]
≤ 10	O=C(O)c1c(O)c(C2(c3ccc(F)cc3)CC2)nc2cc(Cl)ccc12 [Compound 68, 7-chloro-2-(1-(4-fluorophenyl)cyclopropyl)-3-hydroxyquinoline-4-carboxylic acid]
11	Cc1cc(C)c2nc(C3(c4ccc(F)cc4)CC3)c(O)c(C(=O)O)c2c1 [Compound 69, 2-(1-(4-fluorophenyl)cyclopropyl)-3-hydroxy-6,8-dimethylquinoline-4-carboxylic acid]
10	CCc1ccc2nc(C3(c4ccc(F)cc4)CC3)c(O)c(C(=O)O)c2c1 [Compound 70, 6-ethyl-2-(1-(4-fluorophenyl)cyclopropyl)-3-hydroxyquinoline-4-carboxylic acid]
64	O=C(O)c1c(O)c(C2(c3ccc(F)cc3)CC2)nc2c(-c3ccsc3)cccc12 [Compound 71, 2-(1-(4-fluorophenyl)cyclopropyl)-3-hydroxy-8-(thiophen-3-yl)quinoline-4-carboxylic acid]
12	O=C(O)c1c(O)c(C2(c3ccc(F)cc3)CC2)nc2ccc(Br)cc12 [Compound 72, 6-bromo-2-(1-(4-fluorophenyl)cyclopropyl)-3-hydroxyquinoline-4-carboxylic acid]
≤ 10	O=C(O)c1c(O)c(C2(c3ccc(F)cc3)CC2)nc2c(Cl)cccc12 [Compound 73, 8-chloro-2-(1-(4-fluorophenyl)cyclopropyl)-3-hydroxyquinoline-4-carboxylic acid]
10	O=C(O)c1c(O)c(C2(c3ccc(F)cc3)CC2)nc2cc(Br)ccc12 [Compound 74, 7-bromo-2-(1-(4-fluorophenyl)cyclopropyl)-3-hydroxyquinoline-4-carboxylic acid]
≤ 10	O=C(O)c1c(O)c(C2(c3ccc(F)cc3)CC2)nc2c(Br)cccc12 [Compound 75, 8-bromo-2-(1-(4-fluorophenyl)cyclopropyl)-3-hydroxyquinoline-4-carboxylic acid]
43	O=C(O)c1c(O)c(C2(c3ccc(F)cc3)CC2)nc2c(C(O)(C(F)(F)F)C(F)(F)F)cccc12 [Compound 76, 2-(1-(4-fluorophenyl)cyclopropyl)-8-(1,1,1,3,3,3-hexafluoro-2-hydroxypropan-2-yl)-3-hydroxyquinoline-4-carboxylic acid]
37	O=C(O)c1c(O)c(C2(c3ccc(F)cc3)CC2)nc2c(-c3ccccc3)cccc12 [Compound 77]
10	Cc1cccc2c(C(=O)O)c(O)c(C3(c4ccc(F)cc4)CC3)nc12 [Compound 78, 2-(1-(4-fluorophenyl)cyclopropyl)-3-hydroxy-8-methylquinoline-4-carboxylic acid]
≤ 10	COc1ccc2nc(C3(c4ccc(F)cc4)CC3)c(O)c(C(=O)O)c2c1 [Compound 79, 2-(1-(4-fluorophenyl)cyclopropyl)-3-hydroxy-6-methoxyquinoline-4-carboxylic acid]
59	O=C(O)c1c(O)c(C2(c3ccc(F)cc3)CC2)nc2c3c(ccc12)CCCC3 [Compound 80, 2-(1-(4-fluorophenyl)cyclopropyl)-3-hydroxy-7,8,9,10-tetrahydrobenzo[h]quinoline-4-carboxylic acid]
23	Cc1ccc2c(C(=O)O)c(O)c(C3(c4ccc(F)cc4)CC3)nc2c1C [Compound 81, 2-(1-(4-fluorophenyl)cyclopropyl)-3-hydroxy-7,8-dimethylquinoline-4-carboxylic acid]
38	CCc1cccc2c(C(=O)O)c(O)c(C3(c4ccc(C)cc4)CC3)nc12 [Compound 82, 8-ethyl-2-(1-p-tolylcyclopropyl)-3-hydroxyquinoline-4-carboxylic acid]
12	Cc1ccc(C2(c3nc4c(C)cccc4c(C(=O)O)c3O)CC2)cc1 [Compound 83, 8-methyl-2-(1-p-tolylcyclopropyl)-3-hydroxyquinoline-4-carboxylic acid]
11	Cc1ccc(C2(c3nc4c(C)cc(C)cc4c(C(=O)O)c3O)CC2)cc1 [Compound 84, 3-hydroxy-6,8-dimethyl-2-(1-p-tolylcyclopropyl)quinoline-4-carboxylic acid]
59	Cc1ccc(C2(c3nc4c(C(O)(C(F)(F)F)C(F)(F)F)cccc4c(C(=O)O)c3O)CC2)cc1 [Compound 85, 8-(1,1,1,3,3,3-hexafluoro-2-hydroxypropan-2-yl)-3-hydroxy-2-(1-p-tolylcyclopropyl)quinoline-4-carboxylic acid]
54	Cc1ccc(C2(c3nc4c(C(C)C)cccc4c(C(=O)O)c3O)CC2)cc1 [Compound 86, 3-hydroxy-8-isopropyl-2-(1-p-tolylcyclopropyl)quinoline-4-carboxylic acid]
61	CCc1cccc2c(C(=O)O)c(O)c(C3(c4ccc(C(F)(F)F)cc4)CC3)nc12 [Compound 87, 8-ethyl-3-hydroxy-2-(1-(4-(trifluoromethyl)phenyl)cyclopropyl)quinoline-4-carboxylic acid]
34	CC(C)c1cccc2c(C(=O)O)c(O)c(C3(c4ccc(C(F)(F)F)cc4)CC3)nc12 [Compound 88, 3-hydroxy-8-isopropyl-2-(1-(4-(trifluoromethyl)phenyl)cyclopropyl)quinoline-4-carboxylic acid]
10	CCc1ccc2c(C(=O)O)c(O)c(C3(c4ccc(C(F)(F)F)cc4)CC3)nc2c1 [Compound 89, 7-ethyl-3-hydroxy-2-(1-(4-(trifluoromethyl)phenyl)cyclopropyl)quinoline-4-carboxylic acid]
47	O=C(O)c1c(O)c(C2(c3ccc(C(F)(F)F)cc3)CC2)nc2ccc(OC(F)(F)F)cc12 [Compound 90, 3-hydroxy-6-(trifluoromethoxy)-2-(1-(4-(trifluoromethyl)phenyl)cyclopropyl)quinoline-4-carboxylic acid]
≤ 10	O=C(O)c1c(O)c(C2(c3ccc(C(F)(F)F)cc3)CC2)nc2c(-c3ccsc3)cccc12 [Compound 91, 3-hydroxy-8-(thiophen-3-yl)-2-(1-(4-(trifluoromethyl)phenyl)cyclopropyl)quinoline-4-carboxylic acid]
≤ 10	O=C(O)c1c(O)c(C2(c3ccc(C(F)(F)F)cc3)CC2)nc2c(-c3ccccc3)cccc12 [Compound 92, 3-hydroxy-8-phenyl-2-(1-(4-(trifluoromethyl)phenyl)cyclopropyl)quinoline-4-carboxylic acid]
